# In patent US5461036A, “Spicamycin derivatives and their use as anticancer agents” (priority 1991, dated 1995):
# Like-named read-outs stand apart in the source and are kept apart here.
# Key:
# [1] = test system: nude mice; experiment: in vivo; parameters: species or system nude mice (BALB/c nu/nu); conditions: intravenous, continuous 5 days, maximum dose at which no animal was dead within 2 weeks, 20160 min
# Experimental: (§1) (1) Measurement of maximum tolerated dose (MTD) of the spicamycin derivatives in nude mice
# (§2) The spicamycin derivative was dissolved in dimethylsulfoxide (DMSO) and Cremophor EL® at the same volume as DMSO was added. Physiological saline was added so that the concentration of DMSO and Cremophor EL® was finally adjusted to 1%, respectively, and thus injection liquids of spicamycin derivative in a variety of concentrations were prepared. […] The maximum dose at which no animal was dead was defined as the MTD of the respective derivatives.
# [2] = test system: human colon cancer (COL-1); type: in vivo, mouse
# Experimental: (2) Method for measuring the antitumor effect on human colon cancer (COL-1)
# COL-1, a human colon cancer, was transplanted subcutaneously into nude mice. When the tumor had grown to a volume of about 100 mm^3, the nude mice were divided into groups of 5 animals so that the average tumor volumes of respective groups were equalized. The respective spicamycin derivatives were administered to test groups at their MTDs, while physiological saline (solvent) containing 1% DMSO and 1% Cremophor EL® was administered to the control group. […] RV is expressed as RV =Vn/Vo where Vn is the tumor volume on day n and Vo is the initial tumor volume at the time treatment was commenced.
# [3] = Acute toxicity (LD50); conditions: mouse, in vivo; intravenous, ICR mice (female, 6 weeks old), 14 days observation, Litchfield and Wilcoxon
# From the text: The LD50 was obtained from the mortalities at the respective dosage groups by the Litchfield and Wilcoxon's method.
# [4] = test system: L1210 mouse leukemia; conditions: in vivo; cited from earlier work
# [5] = test system: Walker 256 rat sarcoma; conditions: in vivo; cited from earlier work
# [6] = in vivo; parameters: species or system nude mice (BALB/c nu/nu); conditions: mouse, in vivo; intravenous, continuous 5 days, nude mice; maximum dose at which no animal was dead within 2 weeks; read-out: Maximum tolerated dose
# Experimental: as §1, §2
# [7] = /minimum effective dose (effective: TGIR≥50)
# [8] = COL-1 s.c. in nude mice, at MTD, TGIR=(1-Tx/Cx)×100, maximum during about 3 weeks
# [9] = COL-1 s.c. in nude mice, at MTD, minimum throughout the test period
SMILES,MTD at 336 h [6] [mg/kg/day],"TGIR (tumor growth inhibition rate, maximum) [2, 8]","minTx (relative tumor volume when reduced to the minimum) [2, 9]","Therapeutic index ([2]; mouse, in vivo)",other results
"CCCCCCCCC/C=C/C=C/C(=O)NCC(=O)N[C@@H]1[C@@H](O)[C@@H](O)[C@@H](Nc2ncnc3[nH]cnc23)O[C@H]1C(O)CO (stereo partly drawn) [SPK241, 6-[4'-N-(N'-trans,trans-2,4-tetradecadienoylglycyl)spicaminyl-amino]purine]",,,,,"Maximum tolerated dose [1]: 6 mg/kg/day; Therapeutic index [2, 7]: 16; TGIR (tumor growth inhibition rate, maximum) ([2]; in vivo, sc): 97; minTx (relative tumor volume when reduced to the minimum) ([2]; in vivo, sc): 0.14; LD50 at 336 h [3]: 110 mg/kg"
CC(C)CCCCCCCCCCCCC(=O)NCC(=O)NC1C(O)C(O)C(Nc2ncnc3nc[nH]c23)OC1C(O)CO (centres unmarked) [septacidin],,,,,antitumor activity against L1210 mouse leukemia [4]: no antitumor activity; antitumor activity against Walker 256 rat sarcoma [5]: no antitumor activity
"CCCCCCCCC/C=C/C(=O)NCC(=O)N[C@@H]1[C@@H](O)[C@@H](O)[C@@H](Nc2ncnc3[nH]cnc23)O[C@H]1C(O)CO (stereo partly drawn) [SPK86, 6-[4'-N-(N'-trans-2-dodecenoylglycyl)spicaminyl-amino]purine]",18,86,,,
"CCCCCCCCCCC[C@H](O)CC(=O)NCC(=O)NC1C(O)C(O)C(Nc2ncnc3[nH]cnc23)OC1C(O)CO (single isomer, unassigned) [SPK274, 6-[4'-N-(N'-(s)-3-hydroxytetradecanoylglydyl)spicaminyl-amino]purine]",24,92,0.16,4,
"CCCCCCCCCCCCCC(=O)NCC(=O)N[C@@H]1[C@@H](O)[C@@H](O)[C@@H](Nc2ncnc3[nH]cnc23)O[C@H]1C(O)CO (some centres unmarked) [SPM10, 6-[4 ,-N-(N'-tetradecanoylglycyl)spicaminyl-amino]purine]",2.6,98,0.10,,"Therapeutic index [2, 7]: 4"
"CCCCCCCCCCC(F)C(=O)NCC(=O)NC1C(O)C(O)C(Nc2ncnc3[nH]cnc23)OC1C(O)CO (centres unmarked) [SPK159, 6-[4'-N-(N'-2-fluorododecanoylglycyl)spicaminyl-amino]purine]",24,96,,4,
"O=C(CCCCCCCCC#Cc1ccsc1)NCC(=O)NC1C(O)C(O)C(Nc2ncnc3[nH]cnc23)OC1C(O)CO (centres unmarked) [SPK263, 6-{4,-N-[N'-11-(3'-thienyl)-10-undecynoylglycyl]spicaminyl-amino}purine]",12,97,0.09,8,
"CCCCCCCCCCCCCC(CC(=O)NCC(=O)NC1C(O)C(O)C(Nc2ncnc3[nH]cnc23)OC1C(O)CO)OC(C)=O (centres unmarked) [SPK189, 6-[4'-N-(N'-3-acetoxyhexadecanoylglycyl)-spicaminyl-amino]purine]",6,98,0.09,4,
"O=C(CCCCCCCCCCBr)NCC(=O)N[C@@H]1[C@@H](O)[C@@H](O)[C@@H](Nc2ncnc3[nH]cnc23)O[C@H]1C(O)CO (some centres unmarked) [SPK64, 6-[4'-N-(N'-11-bromoundecanoylglycyl)spicaminyl-amino]purine]",18,95,,4,
"CCCCCCC/C=C/C=C/C(=O)NCC(=O)N[C@@H]1[C@@H](O)[C@@H](O)[C@@H](Nc2ncnc3[nH]cnc23)O[C@H]1C(O)CO (stereo partly drawn) [SPK282, 6-[4'-N-(N'-trans,trans-2,4-dodecadienoylglycyl)spicaminyl-amino]purine]",36,99,0.07,16,
"CC(C)CCCCCCCCCCC(=O)NCC(=O)N[C@@H]1[C@@H](O)[C@@H](O)[C@@H](Nc2ncnc3[nH]cnc23)O[C@H]1C(O)CO (some centres unmarked) [SPK136, 6-[4'-N-(N'-12-methyltridecanoylglycyl)spicaminyl-amino]purine]",2,84,,,"Therapeutic index [2, 7]: 4"
"CCCCCCCCCCCCC/C=C/C(=O)NCC(=O)N[C@@H]1[C@@H](O)[C@@H](O)[C@@H](Nc2ncnc3[nH]cnc23)O[C@H]1C(O)CO (stereo partly drawn) [SPK188, 6-[4'-N-(N'-trans-2-hexadecenoylglycyl)spicaminyl-amino]purine]",0.6,92,,,
"O=C(CCCCCCCCCCCCCCF)NCC(=O)NC1C(O)C(O)C(Nc2ncnc3[nH]cnc23)OC1C(O)CO (centres unmarked) [SPK247, 6-[4,-N-(N'-15-fluoropentadecanoylglycyl)spicaminyl-amino]purine]",6,96,0.16,8,
"O=C(CCCCCCCCCCCCCCl)NCC(=O)N[C@@H]1[C@@H](O)[C@@H](O)[C@@H](Nc2ncnc3[nH]cnc23)O[C@H]1C(O)CO (some centres unmarked) [SPK280, 6-[4'-N-(N'-14-chlorotetradecanoylglycyl)spicaminyl-amino]purine]",9,94,0.19,8,
"O=C(CCCCCCCCCCCCl)NCC(=O)N[C@@H]1[C@@H](O)[C@@H](O)[C@@H](Nc2ncnc3[nH]cnc23)O[C@H]1C(O)CO (some centres unmarked) [SPK132, 6-[4'-N-(N'-12-chlorododecanoylglycyl)spicaminyl-amino]purine]",12,98,0.08,4,
"CCCCCCCCCCCCCC[C@H](O)C(=O)NCC(=O)NC1C(O)C(O)C(Nc2ncnc3[nH]cnc23)OC1C(O)CO (stereo partly drawn) [SPK271, 6-[4'-N-(N'-(S)-2-hydroxyhexadecanoylglycyl)spicaminyl-amino]purine]",2,99,0.09,,"Therapeutic index [2, 7]: 8"
"CCCC/C=C\CCCCCCCC(=O)NCC(=O)N[C@@H]1[C@@H](O)[C@@H](O)[C@@H](Nc2ncnc3[nH]cnc23)O[C@H]1C(O)CO (stereo partly drawn) [SPK231, 6-[4,-N-(N'-cis-9-tetradecenoylglycyl)spicaminyl-amino]purine]",6,96,0.12,6,
"CC(C)CCCCCCCCCC(=O)NCC(=O)N[C@@H]1[C@@H](O)[C@@H](O)[C@@H](Nc2ncnc3[nH]cnc23)O[C@H]1C(O)CO (some centres unmarked) [SPK251, 6-[4'-N-(N'-11-methyldodecanoylglycyl)spicaminyl-amino]purine]",6,97,,8,
"CCCCCCCCC/C=C/C=C/C(=O)NCC(=O)NC1C(O)C(O)C(Nc2ncnc3[nH]cnc23)OC1C(O)CO (stereo not drawn) [SPT241, 6-[4 -N-(N'-trans,trans-2,4-tetradecadienylglycyl)-septaminyl-amino]purine]",3,93,0.24,8,
"O=C(CCCCCCCCCCCCCBr)NCC(=O)N[C@@H]1[C@@H](O)[C@@H](O)[C@@H](Nc2ncnc3[nH]cnc23)O[C@H]1C(O)CO (some centres unmarked) [SPK273, 6-[4'-N-(N'-14-bromotetradecanoylglycyl)spicaminyl-amino]purine]",12,98,0.11,8,
"O=C(CCCCCCCCCCOc1ccccc1)NCC(=O)NC1C(O)C(O)C(Nc2ncnc3[nH]cnc23)OC1C(O)CO (centres unmarked) [SPK422, 6-[4'-N-(N'-11-phenoxyundecanoylglycyl)-spicaminyl-amino]purine]",3.4,95,,4,
"CCCCCCCCCCCCCCC(Cl)C(=O)NCC(=O)NC1C(O)C(O)C(Nc2ncnc3[nH]cnc23)OC1C(O)CO (centres unmarked) [SPK135, 6-[4'-N-(N'-2-chlorohexadecanoylglycyl)spicaminylamino]purine]",24,93,,4,
